Reference: patent US11672786B2, “Methods of treating diseases associated with repeat instability” (The Hospital for Sick Children, priority 2016, dated 2023)

Experiments:
[1] = test system: long (CTG)20 slip-outs from (CAG)30●(CTG)50; assay: band-shift NA-DNA binding, long (CTG)20 slip-out; set-up: species or system human; details: NA 0.15-50 μM, 4% polyacrylamide gel
Excerpt: FIG. 2 are the results of experiments showing that NA binds to long CAG slip-outs. […] The (CAG)n DNA sequence (left) can fold into an hairpin structure involving mismatched A-A pair flanking C-G base pairs (middle). NA molecules can intercalate into the DNA helix, with the 2-amino-1,8-naphthyridine moiety (in red) hydrogen bonding to guanine and 8-azaquinolone moiety (in blue) hydrogen bonding to adenine. […] Long slip-outs extruded as a single slip-out from a fully base-paired backbone of (CTG)n●(CAG)n, as described (Pearson et al., 2002, Nuc. Acids Res., 30:4534-47). DNAs were mixed with increasing concentrations of NA (0.15 μM, 0.75 μM, 7.5 μM and 50 μM) and resolved on 4% polyacrylamide gels. All lanes are from the same gel, and they were separated for clarity. NA-DNA complexes are shown by brackets, free DNA is indicated by arrowheads. […] The relative migration was measured for the linear and the three slip-outs substrates as the ratio of the migration distance of each NA-DNA complex to the migration distance of the free DNA. The migration distance was measured from the well to a consistent center point of each band. […]

long (CTG)20 slip-out = assay: in vitro repair assay by HeLa cell extracts, long (CTG)20 slip-out; assay type: biochemical, human
Excerpt: (§1) Panel A of […] is a schematic of the in vitro repair assay. Starting DNAs and repair products released the repeat-containing fragment, which is resolved on PAGE and assessed on a molar level by Southern blotting and densitometry. Repair of different DNA substrates containing a long (CAG)20 slip-out (Panel B of FIG. 3) long (CTG)20 slip-out (Panel C of FIG. 3), a single CAG slip-out (Panel D of FIG. 3) or a single G-T mismatch (Panel E of FIG. 3), in the absence or in the presence of NA. Slipped-DNA substrates were prepared from hybrids of (CAG)50●(CTG)30, (CAG)30●(CTG)50 or of (CAG)50●(CTG)49. Repair of the G-T mismatch reconstitutes a HindIII restriction site, as shown schematically. Graphs show percentage repair efficiencies to repaired product relative to all repeat-containing fragments in the lane, values are normalized to the NA-free efficiency. […]
(§2) To determine how the binding of NA to slipped DNA structures affects repair, a series of circular slipped heteroduplex substrates was made with an excess of repeats with a nick located either 5′ or 3′ of the slip-out (FIG. 3). […] All these substrates were processed in […] by HeLa extracts and then were assessed for repair. Repair products were analyzed by Southern blotting, probed for the repeat-containing fragment, and compared with starting material, which permitted quantitative assessment of repair efficiency at a molar level. […]

single CAG slip-out = assay: in vitro repair assay by HeLa cell extracts, single repeat slip-out; assay type: biochemical, human
Excerpt: as §1, §2

mouse striatum = assay: histological study of mouse striatum, H&E staining; assay type: in vivo; details: NA in saline injected into striatum
d(CAG)9 = d(CAG)9 immobilization 497 RU; cited from earlier work

In the case of naphthyridine-azaquinolone, the “NA binding (band-shift)” value [1] is reported as “not bound”, the “effect on repair of long (CTG)20 slip-outs” value (long (CTG)20 slip-out) is reported as “doesn't affect the repair efficiency” and the “effect on repair of a single repeat CAG or CTG slip-out” value (single CAG slip-out) is reported as “unaffected”. For the same substance, the brain morphology (mouse striatum) was “did not alter brain morphology” and the “changes in the SPR intensity on NA binding” value (d(CAG)9) was 140 RU.
